The pIC50 is the negative decadic logarithm of the IC50, by convention in mol/L. Low values mean a high IC50, high ones a low IC50.

Each structure is given as a SMILES string. pIC50: −log10 of the molar value. A value given as a limit tells only on which side of the number the result lay.

This passage reports IC50 results from US7009052B2, “Sulfonamide derivatives” (Warner Lambert Company LLC, priority 2003, dated 2006).

This assay concerns the target T1, androgen receptor (Homo sapiens, UniProt P10275).
T1 sequence (P10275 1-920 Q868H): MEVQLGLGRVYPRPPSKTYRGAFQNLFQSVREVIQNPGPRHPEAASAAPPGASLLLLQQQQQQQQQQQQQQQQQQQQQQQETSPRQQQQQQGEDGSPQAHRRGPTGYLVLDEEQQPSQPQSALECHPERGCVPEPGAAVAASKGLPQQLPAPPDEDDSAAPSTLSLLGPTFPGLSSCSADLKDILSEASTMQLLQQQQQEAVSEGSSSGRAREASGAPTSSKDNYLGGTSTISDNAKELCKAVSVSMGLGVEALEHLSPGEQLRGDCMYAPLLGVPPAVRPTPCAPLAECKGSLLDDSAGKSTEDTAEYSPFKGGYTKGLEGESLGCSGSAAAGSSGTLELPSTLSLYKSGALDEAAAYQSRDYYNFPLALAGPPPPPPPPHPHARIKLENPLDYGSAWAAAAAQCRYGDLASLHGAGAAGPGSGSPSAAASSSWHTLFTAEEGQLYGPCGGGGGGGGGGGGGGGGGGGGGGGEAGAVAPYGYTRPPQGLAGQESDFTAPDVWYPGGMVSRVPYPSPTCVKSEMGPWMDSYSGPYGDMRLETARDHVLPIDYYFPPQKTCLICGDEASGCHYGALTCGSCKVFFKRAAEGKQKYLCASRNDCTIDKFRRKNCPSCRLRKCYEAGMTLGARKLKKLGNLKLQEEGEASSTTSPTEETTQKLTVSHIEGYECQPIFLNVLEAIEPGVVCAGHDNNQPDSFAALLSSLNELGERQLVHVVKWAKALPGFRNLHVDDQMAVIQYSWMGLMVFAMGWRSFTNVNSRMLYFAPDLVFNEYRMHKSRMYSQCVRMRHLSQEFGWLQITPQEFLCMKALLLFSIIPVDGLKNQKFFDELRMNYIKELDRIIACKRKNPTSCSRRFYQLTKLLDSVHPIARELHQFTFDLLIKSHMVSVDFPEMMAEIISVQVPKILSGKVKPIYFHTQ
Briefly: AR Antagonist Cell Assay (MMTV-luciferase reporter, DHT-induced). It counts as cell-based. The note with it: MDA-MB453-MMTV clone 54-19 cells, 100 pM DHT, 17 hr. The method in brief: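 Stably transfected MDA-MB453 cells carrying an ARE-containing MMTV promoter–firefly luciferase reporter, pretreated 30 min with compound at 10 uM or 1 uM in 1% charcoal-treated serum medium. Then stimulated with 100 pM DHT for 17 hr at 37° C. and luminescence read; expressed as % inhibition of DHT-induced signal.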
On the technique in general: Reporter assays use an easily measured gene product as a stand-in for the process of interest.
`CC(C)N(C)S(=O)(=O)c1ccc2[nH]c(=O)cc(C(F)(F)F)c2c1` [Example 70, 2-Oxo-4-trifluoromethyl-1,2-dihydroquinoline-6-sulfonic acidisopropylmethylamide]: the pIC50 was 6.26. Take `CCOc1ccc(NS(=O)(=O)c2ccc3c(c2)c(C(F)(F)F)cc(=O)n3C)cc1` [Example 44, 1-Methyl-2-oxo-4-trifluoromethyl-1,2-dihydroquinoline-6-sulfonicacid (4-ethoxyphenyl)amide]: the pIC50 was 5.42. `CCCCN(CCCC)S(=O)(=O)c1ccc2[nH]c(=O)cc(C(F)(F)F)c2c1` [Example 68, 2-Oxo-4-trifluoromethyl-1,2-dihydroquinoline-6-sulfonic aciddibutylamide]: the pIC50 is 6.39. Regarding `Cn1c(=O)cc(C(F)(F)F)c2cc(S(=O)(=O)Nc3cccc(OC(F)(F)F)c3)ccc21` [Example 41, 1-Methyl-2-oxo-4-trifluoromethyl-1,2-dihydroquinoline-6-sulfonicacid (3-trifluoromethoxy-phenyl)amide], the pIC50 is 5.41. Consider `CC(O)c1cccc(NS(=O)(=O)c2ccc3c(c2)c(C(F)(F)F)cc(=O)n3C)c1` (stereo not shown) [Example 28, 1-Methyl-2-oxo-4-trifluoromethyl-1,2-dihydro-quinoline-6-sulfonic acid [3-(1-hydroxyethyl)phenyl]-amide], for which the pIC50 was less than 5.00. `Cc1cc(=O)oc2cc(NS(=O)(=O)c3ccc4c(c3)c(C(F)(F)F)cc(=O)n4C)ccc12` [Example 40, 1-Methyl-2-oxo-4-trifluoromethyl-1,2-dihydroquinoline-6-sulfonic(4-methyl-2-oxo-2H-chromen-7-yl)amide] showed a pIC50 of less than 5.00.

Regarding `CSc1cccc(NS(=O)(=O)c2ccc3[nH]c(=O)cc(C(F)(F)F)c3c2)c1` [Example 101, 2-Oxo-4-trifluoromethyl-1,2-dihydroquinoline-6-sulfonic acid(3-methylsulfanylphenyl)amide], the negative logarithm of the IC50 (pIC50) is 6.44.

In the case of `COc1cccc(NS(=O)(=O)c2ccc3c(c2)c(C(F)(F)F)cc(=O)n3C)c1` [Example 48, 1-Methyl-2-oxo-4-trifluoromethyl-1,2-dihydroquinoline-6-sulfonicacid (3-methoxyphenyl)amide], the pIC50 was 5.95.

`Cn1c(=O)cc(C(F)(F)F)c2cc(S(=O)(=O)Nc3cccc(Cc4ccccc4)c3)ccc21` [Example 43, 1-Methyl-2-oxo-4-trifluoromethyl-1,2-dihydroquinoline-6-sulfonicacid (3-benzylphenyl)amide] showed a pIC50 of less than 5.00. In turn, `O=c1cc(C(F)(F)F)c2cc(S(=O)(=O)Nc3ccc4c(c3)CCC4)ccc2[nH]1` [Example 96, 2-Oxo-4-trifluoromethyl-1,2-dihydroquinoline-6-sulfonic acidindan-5-ylamide] gave a pIC50 of 6.85. On to `CSc1ccccc1CNS(=O)(=O)c1ccc2oc(=O)cc(C(F)(F)F)c2c1` [Example 66, 2-Oxo-4-trifluoromethyl-2H-chromene-6-sulfonic acid 2-methylsulfanylbenzylamide], for which the negative logarithm of the IC50 (pIC50) is less than 5.00. In turn, `Cn1c(=O)cc(C(F)(F)F)c2cc(S(=O)(=O)Nc3cccc4c3CCC4)ccc21` [Example 23, 1-Methyl-2-oxo-4-trifluoromethyl-1,2-dihydroquinoline-6-sulfonicacid indan-4-ylamide] showed a pIC50 of less than 5.00. Molecule `CC(C)c1ccc(NS(=O)(=O)c2ccc3c(c2)c(C(F)(F)F)cc(=O)n3C)cc1` [Example 25, 1-Methyl-2-oxo-4-trifluoromethyl-1,2-dihydroquinoline-6-sulfonicacid (4-isopropylphenyl)amide] gave a pIC50 of 5.06. The same measure for `Cn1c(=O)cc(C(F)(F)F)c2cc(S(=O)(=O)NC3CCc4ccccc43)ccc21` (stereo not shown) [Example 55, 1-Methyl-2-oxo-4-trifluoromethyl-1,2-dihydroquinoline-6-sulfonicacid indan-1-ylamide]: 5.37. `CC(O)c1cccc(NS(=O)(=O)c2ccc3[nH]c(=O)cc(C(F)(F)F)c3c2)c1` (stereo not shown) [Example 100, 2-Oxo-4-trifluoromethyl-1,2-dihydroquinoline-6-sulfonic acid[3-(1-hydroxyethyl)phenyl]amide] gave a pIC50 of less than 5.00.

Consider `CN(C1CCCCC1)S(=O)(=O)c1ccc2[nH]c(=O)cc(C(F)(F)F)c2c1` [Example 75, 2-Oxo-4-trifluoromethyl-1,2-dihydroquinoline-6-sulfonic acidcyclohexylmethylamide], for which the pIC50 is 5.24. To `Cc1cc(=O)oc2cc(NS(=O)(=O)c3ccc4[nH]c(=O)cc(C(F)(F)F)c4c3)ccc12` [Example 111, 2-Oxo-4-trifluoromethyl-1,2-dihydroquinoline-6-sulfonic acid(4-methyl-2-oxo-2H-chromen-7-yl)amide] belongs less than 5.00; to `O=c1cc(C(F)(F)F)c2cc(S(=O)(=O)Nc3cccc(OC(F)F)c3)ccc2[nH]1` [Example 106, 2-Oxo-4-trifluoromethyl-1,2-dihydroquinoline-6-sulfonic acid(3-difluoromethoxyphenyl)amide], 6.59; to `CCCN(CC1CC1)S(=O)(=O)c1ccc2[nH]c(=O)cc(C(F)(F)F)c2c1` [Example 73, 2-Oxo-4-trifluoromethyl-1,2-dihydroquinoline-6-sulfonic acidcyclopropylmethyl-propylamide], 6.26.

As to `CC(C)OCCCNS(=O)(=O)c1ccc2[nH]c(=O)cc(C(F)(F)F)c2c1` [Example 127, 2-Oxo-4-trifluoromethyl-1,2-dihydroquinoline-6-sulfonic acid(3-isopropoxypropyl)amide], the pIC50 is 5.80. `Cc1cccc(C)c1NS(=O)(=O)c1ccc2c(c1)c(C(F)(F)F)cc(=O)n2C` [Example 18, 1-Methyl-2-oxo-4-trifluoromethyl-1,2-dihydroquinoline-6-sulfonicacid (2,6-dimethylphenyl)amide] showed a negative logarithm of the IC50 (pIC50) of less than 5.00.

`O=c1cc(C(F)(F)F)c2cc(S(=O)(=O)NCCC3=CCCCC3)ccc2[nH]1` [Example 132, 2-Oxo-4-trifluoromethyl-1,2-dihydroquinoline-6-sulfonic acid(2-cyclohex-1-enylethyl)amide] showed a pIC50 of 6.68. For the molecule `O=c1cc(C(F)(F)F)c2cc(S(=O)(=O)NCCc3cccs3)ccc2[nH]1` [Example 133, 2-Oxo-4-trifluoromethyl-1,2-dihydroquinoline-6-sulfonic acid(2-thiophen-2-ylethyl)amide], the pIC50 is 5.72. To `CCN(Cc1ccccc1)S(=O)(=O)c1ccc2[nH]c(=O)cc(C(F)(F)F)c2c1` [Example 79, 2-Oxo-4-trifluoromethyl-1,2-dihydroquinoline-6-suifonic acidbenzylethylamide] belongs 6.41; to `O=c1cc(C(F)(F)F)c2cc(S(=O)(=O)NCc3c(F)cccc3F)ccc2[nH]1` [Example 139, 2-Oxo-4-trifluoromethyl-1,2-dihydroquinoline-6-sulfonic acid2,6-difluorobenzylamide], 5.53. The molecule `O=c1cc(C(F)(F)F)c2cc(S(=O)(=O)NC3CCCCCC3)ccc2[nH]1` [Example 126, 2-Oxo-4-trifluoromethyl-1,2-dihydroquinoline-6-sulfonic acidcycloheptylamide] had a negative logarithm of the IC50 (pIC50) of 5.53. The same measure for `O=c1cc(C(F)(F)F)c2cc(S(=O)(=O)Nc3cccc(CO)c3)ccc2[nH]1` [Example 91, 2-Oxo-4-trifluoromethyl-1,2-dihydroquinoline-6-sulfonic acid(3-hydroxymethylphenyl)amide]: 5.50; for `O=c1cc(C(F)(F)F)c2cc(S(=O)(=O)Nc3ccc4ncccc4c3)ccc2[nH]1` [Example 93, 2-Oxo-4-trifluoromethyl-1,2-dihydroquinoline-6-sulfonic acidquinolin-6-ylamide]: 5.46. `Cc1cccc(C)c1NS(=O)(=O)c1ccc2[nH]c(=O)cc(C(F)(F)F)c2c1` [Example 90, 2-Oxo-4-trifluoromethyl-1,2-dihydroquinoline-6-sulfonic acid(2,6-dimethylphenyl)amide]: the pIC50 is less than 5.00. Molecule `COc1cccc(NS(=O)(=O)c2ccc3[nH]c(=O)cc(C(F)(F)F)c3c2)c1` [Example 116, 2-Oxo-4-trifluoromethyl-1,2-dihydroquinoline-6-sulfonic acid(3-methoxyphenyl)amide] gave a pIC50 of 6.47. Turning to `Cn1c(=O)cc(C(F)(F)F)c2cc(S(=O)(=O)NCCSCc3c(F)cccc3Cl)ccc21` [Example 63, 1-Methyl-2-oxo-4-trifluoromethyl-1,2-dihydroquinoline-6-sulfonicacid [2-(2-chloro-6-fluorobenzylsulfanyl)ethyl]-amide], the pIC50 is less than 5.00.
